According to patent publication US20060229433A1, “Modified antiviral peptides with increased activity and cell membrane affinity” (priority 2003, published 2006):
Where “and” joins values, the source holds several entries; their conditions need not be identical. Identical values can stand only once. Square brackets hold non-standard residues; d marks the D form. Peptide text beside a SMILES is read from it. Ava = NCCCCC(=O)O

Experiments:
Assay type in all cases: cell-based
[1] = test system: HIV-1 NDK; experiment: HIV-1 infection of C8166 cells (syncytia formation, p24 ELISA) with HIV-1 NDK; design: key to syncitia formed, Day 4 / syncitia formed, Day 5 / syncitia formed, Day 6 / syncitia formed, Day 7: ++, +, (+), (+)− and − represent decreasing numbers of syncitia formed; ++, +, (+), (+)− and − represent decreasing numbers of syncitia formed; ++, +, (+), (+)− and − represent decreasing numbers of syncitia formed; ++, +, (+), (+)− and − represent decreasing numbers of syncitia formed; ++, +, (+), (+)− and − represent decreasing numbers of syncitia formed; conditions: for P 24: P 24 after Day 7
Description: (§1) HIV-1 NL 4-3 isolate (Adachi et al., 1986; Barré-Sinoussi et al., 1983) and highly cytopathic Zairian HIV-1 NDK isolate (Ellrodt et al., 1984) was propagated in permissive CEM cells (Nara et al., 1987). Uninfected CEM and C8166 (Salahuddin et al., 1983) were maintained in RPMI 1640 (R10) with ultraglutamine (cambrex, Vervier, Belgium), penicillin (100 U/ml), streptomycin (100 μg/ml), and 10% heat-inactivated fetal calf serum (Cambrex).
(§2) Samples of 3×10^5/100 μL C8166 cells were preincubated in 96-well microtiter plates in culture medium containing various concentrations of peptide. After a 1 h treatment at 37° C., 100 μl of diluted viral solution of HIV-1 was added. The cells were exposed to the virus for 1 h at 37° C. at a multiplicity of infection of 1000 TCID50 per ml. The cells were washed three times and cultured at 3×10^5/ml of R10 with the treatment in 24-well plates incubated at 37° C. C8166 culture medium was replaced at Day-4 post-infection. The treatment was permanent before virus adsorption, during virus adsorption and after infection. Assays on C8166 cells have been performed at least twice and in duplicate. Toxicity was evaluated by daily cell count and trypan-blue exclusion assay. Infection of C8166 T-cells with HIV-1 was assessed by virus-induced cytopathic effects (syncytia formation) and by quantification of cell free p24 viral protein in the culture supernatants. Measurements of HIV-1 p24^gag concentration in the culture supernatants were achieved by ELISA (ALLIANCE® HIV-1 p24 kit, Perkin Elmer, life sciences, USA).

[2] = test system: HIV-1 NL 4-3; experiment: HIV-1 infection of C8166 cells (syncytia formation, p24 ELISA) with HIV-1 NL 4-3; design: key: ++, +, (+), (+)− and − represent decreasing numbers of syncitia formed; ++, +, (+), (+)− and − represent decreasing numbers of syncitia formed; ++, +, (+), (+)− and − represent decreasing numbers of syncitia formed; ++, +, (+), (+)− and − represent decreasing numbers of syncitia formed; ++, +, (+), (+)− and − represent decreasing numbers of syncitia formed; conditions: Table 6
Description: as §1, §2

[3] = test system: HIV-1 NL 4-3; experiment: as above; design: key to syncitia formed, Day 4 / syncitia formed, Day 5 / syncitia formed, Day 6 / syncitia formed, Day 7: ++, +, (+), (+)− and − represent decreasing numbers of syncitia formed; ++, +, (+), (+)− and − represent decreasing numbers of syncitia formed; ++, +, (+), (+)− and − represent decreasing numbers of syncitia formed; ++, +, (+), (+)− and − represent decreasing numbers of syncitia formed; ++, +, (+), (+)− and − represent decreasing numbers of syncitia formed
Description: as §1, §2

[4] = C8166 cells, HIV-1 subtype B NL 4-3, Table 9, two lines = tested twice, 8 days apart

NCC(=O)N1CCC[C@H]1C(=O)NCC(=O)NCCCCC(=O)O [GPG valeric acid, GPG-NHCH2CH2CH2CH2COOH] (H-GPG[Ava]-OH; N-terminus assumed)
syncitia formed, Day 4 ([1]; 0.005 μM): (+) | syncitia formed, Day 5 ([1]; 0.005 μM): + | syncitia formed, Day 6 ([1]; 0.005 μM): ++ | syncitia formed, Day 7 ([1]; 0.005 μM): ++ | P 24 ([1]; 0.005 μM): 23810 pg/mL | syncitia formed, Day 4 ([1]; 0.01 μM): (+) | syncitia formed, Day 5 ([1]; 0.01 μM): + | syncitia formed, Day 6 ([1]; 0.01 μM): ++ | syncitia formed, Day 7 ([1]; 0.01 μM): ++ | P 24 ([1]; 0.01 μM): 23810 pg/mL | syncitia formed, Day 4 ([1]; 0.05 μM): − | syncitia formed, Day 5 ([1]; 0.05 μM): (+) | syncitia formed, Day 6 ([1]; 0.05 μM): ++ | syncitia formed, Day 7 ([1]; 0.05 μM): ++ | P 24 ([1]; 0.05 μM): 11810 pg/mL and 15879 pg/mL | syncitia formed, Day 4 ([1]; 0.1 μM): − | syncitia formed, Day 5 ([1]; 0.1 μM): − | syncitia formed, Day 6 ([1]; 0.1 μM): + | syncitia formed, Day 7 ([1]; 0.1 μM): ++ | P 24 ([1]; 0.1 μM): 3507 pg/mL and 3670 pg/mL | syncitia formed, Day 4 ([1]; 0.5 μM): − | syncitia formed, Day 5 ([1]; 0.5 μM): − | syncitia formed, Day 6 ([1]; 0.5 μM): + | syncitia formed, Day 7 ([1]; 0.5 μM): ++ | P 24 ([1]; 0.5 μM): 2578 pg/mL and 3140 pg/mL | syncitia formed, Day 4 ([1]; 1 μM): − | syncitia formed, Day 5 ([1]; 1 μM): − | syncitia formed, Day 6 ([1]; 1 μM): − | syncitia formed, Day 7 ([1]; 1 μM): + | P 24 ([1]; 1 μM): 2810 pg/mL and 1840 pg/mL | syncitia formed, Day 4 ([1]; 5 μM): − | syncitia formed, Day 5 ([1]; 5 μM): − | syncitia formed, Day 6 ([1]; 5 μM): − | syncitia formed, Day 7 ([1]; 5 μM): (+) | P 24 ([1]; 5 μM): 284 pg/mL and 217 pg/mL | IC50 ([1]; HIV 1 NDK, Table 10): 20 nM | IC100 ([1]; HIV 1 NDK, Table 10): 5 µM | Day 4 syncitia formed ([2]; 0.005 μM): − | Day 5 syncitia formed ([2]; 0.005 μM): + | Day 6 syncitia formed ([2]; 0.005 μM): ++ | Day 4 syncitia formed ([2]; 0.01 μM): − | Day 5 syncitia formed ([2]; 0.01 μM): + | Day 6 syncitia formed ([2]; 0.01 μM): + | Day 7 syncitia formed ([2]; 0.01 μM): ++ | Day 4 syncitia formed ([2]; 0.05 μM): − | Day 5 syncitia formed ([2]; 0.05 μM): − | Day 6 syncitia formed ([2]; 0.05 μM): (+) | Day 7 syncitia formed ([2]; 0.05 μM): + | Day 4 syncitia formed ([2]; 0.1 μM): − | Day 5 syncitia formed ([2]; 0.1 μM): − | Day 6 syncitia formed ([2]; 0.1 μM): (+) | Day 7 syncitia formed ([2]; 0.1 μM): + | Day 4 syncitia formed ([2]; 0.5 μM): − | Day 5 syncitia formed ([2]; 0.5 μM): − | Day 6 syncitia formed ([2]; 0.5 μM): − | Day 7 syncitia formed ([2]; 0.5 μM): − | Day 4 syncitia formed ([2]; 1 μM): − | Day 5 syncitia formed ([2]; 1 μM): − | Day 6 syncitia formed ([2]; 1 μM): − | Day 7 syncitia formed ([2]; 1 μM): − | Day 4 syncitia formed ([2]; 5 μM): − | Day 5 syncitia formed ([2]; 5 μM): − | Day 6 syncitia formed ([2]; 5 μM): − | Day 7 syncitia formed ([2]; 5 μM): − | Day 7 syncitia formed ([3]; 0.005 μM, Table 6): ++/T | syncitia formed, Day 4 ([3]; 0.01 μM, C8166 cells): − | syncitia formed, Day 5 ([3]; 0.01 μM, C8166 cells): (+) | syncitia formed, Day 6 ([3]; 0.01 μM, C8166 cells): + | syncitia formed, Day 7 ([3]; 0.01 μM, Day 7, C8166 cells): ++ | syncitia formed, Day 4 ([3]; 0.05 μM, C8166 cells): − | syncitia formed, Day 5 ([3]; 0.05 μM, C8166 cells): − | syncitia formed, Day 6 ([3]; 0.05 μM, C8166 cells): (+) | syncitia formed, Day 7 ([3]; 0.05 μM, Day 7, C8166 cells): + | P 24 ([3]; 0.05 μM, P 24 after Day 7, C8166 cells): 3810 pg/mL and 2300 pg/mL | syncitia formed, Day 4 ([3]; 0.1 μM, C8166 cells): − | syncitia formed, Day 5 ([3]; 0.1 μM, C8166 cells): − | syncitia formed, Day 6 ([3]; 0.1 μM, C8166 cells): (+) | syncitia formed, Day 7 ([3]; 0.1 μM, Day 7, C8166 cells): + | P 24 ([3]; 0.1 μM, P 24 after Day 7, C8166 cells): 108 pg/mL and 130 pg/mL | syncitia formed, Day 4 ([3]; 0.5 μM, C8166 cells): − | syncitia formed, Day 5 ([3]; 0.5 μM, C8166 cells): − | syncitia formed, Day 6 ([3]; 0.5 μM, C8166 cells): − | syncitia formed, Day 7 ([3]; 0.5 μM, Day 7, C8166 cells): (+) | syncitia formed, Day 4 ([3]; 1 μM, C8166 cells): − | syncitia formed, Day 5 ([3]; 1 μM, C8166 cells): − | syncitia formed, Day 6 ([3]; 1 μM, C8166 cells): − | syncitia formed, Day 7 ([3]; 1 μM, Day 7, C8166 cells): − | P 24 ([3]; 1 μM, P 24 after Day 7, C8166 cells): 86 pg/mL and 74 pg/mL | syncitia formed, Day 4 ([3]; 5 μM, C8166 cells): − | syncitia formed, Day 5 ([3]; 5 μM, C8166 cells): − | syncitia formed, Day 6 ([3]; 5 μM, C8166 cells): − | syncitia formed, Day 7 ([3]; 5 μM, Day 7, C8166 cells): − | P 24 ([3]; 5 μM, P 24 after Day 7, C8166 cells): 60 pg/mL and 34 pg/mL | IC50 [3, 4]: 10 nM | IC100 [3, 4]: 0.5 µM and 1 µM | P 24 ([3]; Day 7, 0.005 μM, Table 6): 23810 pg/mL | P 24 ([3]; Day 7, 0.01 μM, Table 6): 11810 pg/mL and 13740 pg/mL | P 24 ([3]; Day 7, 0.5 μM, Table 6): 3.5 pg/mL and 5.6 pg/mL | P 24 ([3]; Day 7, 1 μM, Table 6): 5.636 pg/mL and 4.8 pg/mL | P 24 ([3]; Day 7, 5 μM, Table 6): 5.6 pg/mL and 3.2 pg/mL
